In ChEMBL document CHEMBL1147542 (Bioorg Med Chem Lett, 2004) one finds IC50 ratio and IC50 data, which are given here for 1 compound.

The nature of experiment [1]: Relative inhibition of PDE6 and PDE5.
For experiment [2], the target named is Phosphodiesterase 6. Put plainly: Inhibition of phosphodiesterase 6 from bovine retina. Type of experiment: protein assay, Bos taurus.
In experiment [3] the target is Phosphodiesterase 1 (Bos taurus, UniProt Q01061+P14100). Briefly: Inhibition of phosphodiesterase 1 from bovine heart. The format is protein assay.
Experiment [4] can be described thus: Relative inhibition of PDE1 and PDE5.
The test system of experiment [5] is Phosphodiesterase 3 and 5 (Oryctolagus cuniculus). Put plainly: Relative inhibition of PDE3 and PDE5.
The target in experiment [6] is Phosphodiesterase 3 (Oryctolagus cuniculus). Put plainly: Inhibition of phosphodiesterase 3 from rabbit platelets.

Structures are written as SMILES.

By IC50 is commonly meant the midpoint of a concentration-inhibition curve. A higher IC50 goes with weaker potency in that assay. For the compound `CCCOc1ccc(S(=O)(=O)N2CCC(CP(=O)(O)OCC)CC2)cc1-c1nc2c(CCC)nn(C)c2c(=O)[nH]1`, the values for the IC50 ratio in experiment [1], in experiment [4] and in experiment [5] were 15, 918 and over 15000, respectively. In addition, the IC50 is on record as 2.58 nM in experiment [2], 156 nM in experiment [3] and 2600 nM in experiment [6].
